# In patent US10858628B2, “Methods and compositions for inducing hematopoietic cell differentiation” (Fate Therapeutics, Inc., priority 2015, dated 2020):
# What was measured:
# Type in all cases: cell-based, human
# hiPSCs [1] = assay: hiPSC monolayer hematopoietic differentiation (iCD34 platform), CD34+ HE population at D10 by flow cytometry
# Experimental: The iCD34 platform is an optimized system for hematopoietic lineage cells differentiation. To initiate differentiation towards the hematopoietic lineage, hiPSCs were seeded as a monolayer on Day (D) 0 in the maintenance medium and allowed to adhere and expand for about 24 hours. At this point, the maintenance medium was removed and replaced with base medium without maintenance factors at D1. Hematopoietic differentiation was initiated at around D2 by switching the culture medium to iCD34−A (see FIG. 1). […] The monolayers were maintained until around D5-D6 at which point they were dissociated into single cells and seeded as a low density monolayer in iCD34−C medium until differentiation around D10. Low oxygen tension (2-10% O2) was maintained from the onset of hematopoietic differentiation around D2 up until around D10 of differentiation.
# During the culture process, the directed differentiation towards the hematopoietic lineage was monitored by the dissociation of the monolayers into single cells and analysis for the surface marker expression of CD34, and optionally, CD43, CD45, CXCR4, CD73 and/or CD93 (FIG. 4A). At around D8 of differentiation, the appearance of a cell population representing HE was observed by the cell surface expression signature CD34+. CD43−CXCR4−CD73− was also observed in the CD34+ cells. The CD34+ population was maintained until around D10 (FIG. 4A). At D10, which time point can be shortened to about D9 or extended until about D12, the cells were dissociated into single cells and the CD34+ HE population was sorted by FACS using a BD FACS Aria for further analysis and functional assessment.
# To optimize the efficient generation of HE from hiPSCs after around 10 days of differentiation several parameters were examined. The optimal plating density of the monolayers at D0 of differentiation was assessed by plating increasing numbers of hiPSCs from 7.5×10^4/well to 1.5×10^5/well on Matrigel™-coated 6 well culture dishes and then analyzing the generation of the CD34+ HE population at about D10. […] Despite this decrease, the highest conversion rate of hiPSCs to HE after 10 days of monolayer differentiation was at the highest plating density tested at 1.5×10^5/well (FIG. 4C).
# The effect of the concentration of BMP4 modulation during the initial stages of hematopoietic differentiation on the generation of HE was assessed by treating the cultures with increasing concentrations of BMP4 ranging from 0 ng/ml to 30 ng/ml from about D2 to about D6 of differentiation. The generation of HE at D10 was assessed by the detection of the CD34+ HE population.
# The Wnt pathway activator CHIR99021 is responsible for the induction of the definitive hematopoietic program from hiPSCs. The effect of the modulation of CHIR during the induction phase of the hematopoietic differentiation protocol was assessed by treating the cultures with increasing concentrations of CHIR from about D3.75 to about D6.
# hiPSCs [2] = assay: WNT signaling modulation from day 6 of differentiation, CD34+CD43-CD93- HE analyzed at Day 10
# Experimental: To optimize the efficient generation of definitive HE from hiPSCs after 10 days of directed differentiation, the effect of modulation of the WNT signaling pathway was examined. At day 6 of differentiation, cell cultures were differentiated in the presence of the GSK3 inhibitor CHIR99021, a Wnt agonist, or IWP2, a WNT inhibitor (FIG. 29A). The generation of CD34+CD43−CD93− HE was analyzed at Day 10.
# Day 10 CD34+CD43- cells [3] = assay: MPP differentiation of WNT modulated HE
# Experimental: Approximately 30,000 CD34+ HE cells were plated as a monolayer in iMPP-A media and further cultured for 6-8 days. FIG. 6A illustrates the phenotypic alterations in the monolayer cultures with the emergence of round hematopoietic cells and flow cytometric staining identifies the presence of CD45+ over the 6-8 day culture period.
# (§1) To determine the potency of the WNT modulated HE, the pan-hematopoietic and lymphoid potential of the untreated, IWP2- and CHIR99021-treated HE was each assessed. Day 10 CD34+CD43− cells were isolated by FACS and plated in MPP differentiation and iNK differentiation cultures as provided herein.
# Day 10 CD34+CD43- cells [4] = assay: iNK differentiation of WNT modulated HE
# Experimental: Specific to NK cells, upon sorting, the HE cells were cultured on low attachment tissue culture plates in iNK-A2 serum-free differentiation media containing SCF, TPO, Flt3L, IL3, IL15, and IL7 (FIG. 3). After 5 days, the cells were transferred to adherent cultures containing DLL4-expressing stromal cells in iNK-B2 differentiation media containing SCF, IL3, IL15, Flt3L and IL7 to complete NK cell differentiation. After approximately 10-15 days of culturing (post HE isolation) the cell culture was assessed for the generation of NK cell progenitors followed by mature NK subsets following an additional 10-15 days of culturing. CD56 and CD161 (NKR-P1A) are the first cell surface markers to be expressed during early NK cell development followed by the expression of CD16, KIR, CD8 and NKG2D (CD314) on later mature NK cell subsets. FIG. 11 depicts the in vitro differentiation capability of the Day 10 HE population to give rise to early NK cell progenitors and mature NK cell subsets by analysis of a CD45+ population generated in the co-cultures.
# as §1
# [5] = system: umbilical cord blood CD34+ cells; assay: Stromal-free NK differentiation on plate-bound DLL4 protein, cord blood cells; settings: versus stromal-based and stromal-free control cultures
# Experimental: Specific to NK cells, enriched umbilical cord blood CD34+ cells were plated in iNK-A2 serum-free differentiation media containing SCF, Flt3L, TPO, IL3, IL15 and IL7 in culture plates containing DLL4 protein or control protein. After 5 days the iNK-B2 medium was maintained to complete NK cell differentiation. After approximately 10-15 days of culture, the culture was assessed for the generation of NK cell progenitors and the absence of myeloid cells. CD56, CD7 and CD161 are the first cell surface markers to be expressed during NK cell development. CD11b and CD14 are cell surface markers expressed on myeloid cell subsets. FIG. 18 depicts stromal-free differentiation of umbilical cord blood CD34+ cells towards NK cells. […] Early NK lineage markers identify the presence of ipro-NK cells as defined by CD56, CD7 and CD161 and the absence of myeloid markers CD11b and CD14.
# [6] = system: Day 10 CD34+ iHE sorted cells; assay: Stromal-free NK differentiation on plate-bound DLL4 protein, hiPSC-derived cells
# Excerpt: Then the hiPSC-derived CD34+ cells were differentiated towards the NK cell lineage for 20 days and then placed in suspension culture for further maturation. […] After 5 days iNK-B2 media was maintained to complete NK cell differentiation. Markers for identifying the presence of mature NK cells include CD56, CD122, NKp30, CD94, CD16, NKG2D and KIR.
# [7] = CHIR from about D3.75 to about D6
molecule,measurement,setting,value
Cc1c[nH]c(-c2cnc(NCCNc3ccc(C#N)cn3)nc2-c2ccc(Cl)cc2Cl)n1 [CHIR99021],effect of increasing concentration on percentage of the HE subpopulation,hiPSCs [1]; [7],decreases the percentage of the HE subpopulation
same,effect of increasing concentration on total percentage of CD34+ cells,hiPSCs [1]; [7],increases the total percentage of CD34+ cells
same,optimal concentration of CHIR99021 for HE subpopulation,hiPSCs [1]; [7],approximately 1 uM
same,number and percentage of phenotypic CD34+CD43-CD93- HE (FIG. 29B legend),hiPSCs [2],increased the number and the percentage
same,"HE cellularity (total HE cell number, HE proliferation)",hiPSCs [2]; treated from day 6,improved HE cellularity
same,percentage of CD34+CD43- cells at Day 10,hiPSCs [2]; treated from day 6,slight decrease
same,increase in number and percentage of phenotypic CD34+CD43-CD93- HE,"hiPSCs [2]; treated from day 6, Day 10",2-3 fold
same,production of CD45+ cells from the modulated HE (FIG. 30A legend),Day 10 CD34+CD43- cells [3],increased the production of CD45+ cells
same,increased presence of CD45+ cells (hematopoietic potency),Day 10 CD34+CD43- cells [3]; after 7 days of MPP differentiation,5-6 fold
same,production of NK progenitor cells from the modulated HE (FIG. 30B legend),Day 10 CD34+CD43- cells [4],increased the production of NK progenitor cells
same,increased presence of CD56+CD7+ NK progenitor cells (lymphoid capacity),Day 10 CD34+CD43- cells [4]; after 20 days of iNK differentiation,5-6 fold
"DLL4: plate-bound DLL4 protein, Notch activator",differentiation of CD56+CD7+CD161+ NK cell progenitors,[5],supports a more rapid and efficient differentiation
same,differentiation of NK cell progenitors versus myeloid cells,[6],supports the differentiation of CD56+CD7+CD161+ NK cell progenitors but not CD11b+ myeloid cells
Cc1ccc2nc(NC(=O)CSc3nc4c(c(=O)n3-c3ccccc3)SCC4)sc2c1 [IWP2],HE cell numbers at Day 10,hiPSCs [2]; treated from day 6,overall decrease in HE cell numbers
same,percentage of phenotypic HE at Day 10,hiPSCs [2]; treated from day 6,did not affect the percentage of phenotypic HE
"BMP4: bone morphogenetic protein, BMP pathway activator (protein, UniProt P12644 293-408, looked up) Bone morphogenetic protein 4: SPKHHSQRARKKNKNCRRHSLYVDFSDVGWNDWIVAPPGYQAFYCHGDCPFPLADHLNSTNHAIVQTLVNSVNSSIPKACCVPTELSAISMLYLDEYDKVVLKNYQEMVVEGCGCR",optimal concentration of BMP4 for HE population at D10,hiPSCs [1]; BMP4 0 ng/ml to 30 ng/ml from about D2 to about D6,about 3 ng/mL
same,effect of increasing BMP4 concentration on HE population at D10,"hiPSCs [1]; BMP4 from D2 to D6, below a threshold concentration",increases the HE population at D10
